In patent US20070219172A1, “Selective testicular 11beta-HSD inhibitors for the treatment of hypergonadism associated disorders and modulation of fertility” (The Miriam Hospital, priority 2005, published 2007):
“Also recorded” adds a separate entry of the source. Read-outs that look alike come from different tables or passages of the source.

Legend:
11β-HSD1 Reductase [1] = molecular target: T1, 11β-HSD1 Reductase (Rattus norvegicus, UniProt P16232); assay: 11β-HSD1 reductase inhibition, testicular Leydig cell homogenates; assay type: biochemical; conditions: result in words
T1 construct: testicular leydig cell homogenates; from tissue; host or cells: testicular Leydig cell homogenates
T1 sequence (P16232 whole entry): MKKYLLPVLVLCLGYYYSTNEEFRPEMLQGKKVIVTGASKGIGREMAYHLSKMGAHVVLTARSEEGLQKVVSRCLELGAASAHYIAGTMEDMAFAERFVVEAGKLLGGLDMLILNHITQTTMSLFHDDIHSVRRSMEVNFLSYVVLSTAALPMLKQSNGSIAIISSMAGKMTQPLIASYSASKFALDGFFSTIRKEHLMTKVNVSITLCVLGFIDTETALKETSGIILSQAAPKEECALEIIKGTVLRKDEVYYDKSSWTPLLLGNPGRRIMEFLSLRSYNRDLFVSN

11β-HSD1 Dehydrogenase = molecular target: T2, 11β-HSD1 Dehydrogenase (Rattus norvegicus, UniProt P16232); assay: 11β-HSD1 dehydrogenase inhibition, testicular Leydig cell homogenates; assay type: biochemical; conditions: result in words
T2 construct: testicular leydig cell homogenates; from tissue; host or cells: testicular Leydig cell homogenates
T2 sequence (P16232 whole entry): as above

11β-HSD2 Dehydrogenase = molecular target: T3, 11β-HSD2 Dehydrogenase (Ovis aries, UniProt P50168); assay: 11β-HSD2 dehydrogenase inhibition, sheep kidney microsomes; assay type: biochemical; conditions: result in words
T3 construct: sheep kidney microsomes; from tissue; host or cells: sheep kidney microsomes
T3 sequence (P50168 1-427): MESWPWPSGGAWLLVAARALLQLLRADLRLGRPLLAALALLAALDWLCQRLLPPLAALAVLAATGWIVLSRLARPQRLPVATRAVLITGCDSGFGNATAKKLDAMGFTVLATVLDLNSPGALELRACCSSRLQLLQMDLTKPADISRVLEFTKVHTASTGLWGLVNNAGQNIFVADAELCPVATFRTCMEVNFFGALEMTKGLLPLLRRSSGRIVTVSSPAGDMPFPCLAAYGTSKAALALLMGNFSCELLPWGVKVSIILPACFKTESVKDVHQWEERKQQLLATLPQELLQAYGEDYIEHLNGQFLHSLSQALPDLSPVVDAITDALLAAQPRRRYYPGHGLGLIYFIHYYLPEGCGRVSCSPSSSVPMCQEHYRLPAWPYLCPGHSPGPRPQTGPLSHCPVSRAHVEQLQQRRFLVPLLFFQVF

11β-HSD1 Reductase [2] = molecular target: T1, 11β-HSD1 Reductase; assay: Backward reaction of 11β-HSD1 reductase in rat Leydig cells; assay type: cell-based
Experimental: Similar experiments were performed with 3α,5β-deoxycorticosterone and 3α,5β progesterone, neither of which posess an 11β-hydroxy group.

rat aortic rings = assay: Contractile response of rat aortic rings to phenylephrine; conditions: rat aortic rings incubated with the steroid, versus controls
Experimental: Male Sprague-Dawley (150-200 g) rats were anesthetized with pentobarbital (50 mg/kg IP), and a median sternotomy was performed followed by the rapid removal of the thoracic aorta. The adventitia was removed, but the endothelium was left intact. The aorta was cut into 2-3 mm rings and individual rings were placed into a single well of a twenty four well culture plate and incubated at 37° C. under 95% O2-5% CO2. Each well contained 1 mL of DMEM/F12 containing 1% fetal bovine serum, streptomycin (100 μg/ml), penicillin (100 units/ml) and amphotericin (0.25 μg/ml). Aortic rings were incubated for 24 hours prior to contractility measurements with the following combinations of steroids, and antisense/nonsense oligonucleotides (3 μmol/L):
Antisense phosphorothioate oligonucleotides, targeted to block either 11β-HSD2 or 11β-HSD1 gene expression, were obtained from Research Genetics, Huntsville Ala. Antisense oligomers complementary to 20 bp sequences spanning the ribosome binding/translation start site were used. Oligomer sequences were: 5′-CATAACTGCCGTCCAACAGC-3′ (SEQ ID No.: 2) for 11β-HSD1 Antisense and 5′-AGCCCAGCGCTCCATGACTT-3′ (SEQ ID No. 3) for 111-HSD2 antisense. In control experiments the corresponding sense sequence was used as the nonsense oligomer. Antisense and nonsense oligomers were added directly to each well at 20 μg/10:1 sterile H20 per well for a final concentration of 3 μmol/L.
For contraction measurements, aortic rings were suspended by tungsten wires with 1 g of tension and placed in a vessel bath containing serum free DMEM/F12 media at 37° C. aerated with 95% O2-5% CO2, at pH 7.4. Vessels were equilibrated for 20 minutes and then tested with phenylephrine ([…]-10 μmol/L). […] The intensity of contraction was assessed by use of a Narishige micromanipulator and model FT03 force transducer (Grass Instrument Co. West Warwick, R.I.). Measurements were recorded on computer using the Labview 4.1 Virtual Instrument System (National Instruments, Austin, Tex.).

[3] = whole cell preparations of rat Leydig cells

| Molecule | 11β-HSD1 Reductase inhibition (11β-HSD1 Reductase [1]) | 11β-HSD1 Dehydrogenase inhibition (11β-HSD1 Dehydrogenase) | increase in NADPH production (rat Leydig cells) | 11β-HSD2 Dehydrogenase inhibition (11β-HSD2 Dehydrogenase) | increase in NADPH production (rat Leydig cells; [3]) | effect on the backward reaction of 11β-HSD1 reductase (11β-HSD1 Reductase [2]) | amplification of the contractile response to phenylephrine by the steroid (rat aortic rings) |
| --- | --- | --- | --- | --- | --- | --- | --- |
| 3α,5α-reduced-11-keto-progesterone | Selective Inhibitor | No Inhibition |  |  |  |  |  |
| C[C@]12CC[C@@H](O)C[C@@H]1CC[C@@H]1[C@@H]2CC[C@]2(C)[C@@H](O)CC[C@@H]12 [3α5α TH-testosterone] |  |  | three to five fold increase |  |  |  |  |
| C[C@@]12CC[C@@H]3[C@H]([C@@H](O)C[C@]4(C=O)[C@@H](C(=O)CO)CC[C@@H]34)[C@@]1(C)CC[C@@H](O)C2 [3α,5α-reduced aldosterone] | No Inhibition | Moderate Inhibitor |  | Potent Inhibitor |  |  |  |
| C[C@]12CC[C@@H](O)C[C@@H]1CC[C@@H]1[C@@H]2C(=O)C[C@]2(C)C(=O)CC[C@@H]12 [3α,5α-reduced-11-keto-androstenedione] | Selective Inhibitor | No Inhibition |  |  |  |  |  |
| C[C@]12CC[C@H](O)C[C@@H]1CC[C@H]1[C@@H]3CC[C@H](O)[C@@]3(C)CC(=O)[C@@H]12 [3α,5α-reduced-11-keto-testosterone] | Selective Inhibitor | No Inhibition |  |  |  |  |  |
| C[C@]12CC[C@H](O)C[C@H]1CC[C@@H]1[C@@H]2[C@@H](O)C[C@]2(C)C(=O)CC[C@H]12 [3α,5α-reduced-11β-OH-androstenedione] | No Inhibition | Moderate Inhibitor |  | Potent Inhibitor (Non-Selective) |  |  |  |
| CC(=O)[C@H]1CC[C@H]2[C@@H]3CC[C@H]4C[C@@H](O)CC[C@]4(C)[C@H]3[C@@H](O)C[C@]12C [3α,5α-reduced-11β-OH-progesterone] | No Inhibition | Potent Inhibitor (Non-Selective) |  | Potent Inhibitor (Non-Selective) | three to five fold increase |  |  |
| C[C@]12CC[C@@H](O)C[C@@H]1CC[C@@H]1[C@@H]2[C@@H](O)C[C@@]2(C)[C@@H]1CC[C@@H]2O [3α,5α-reduced-11β-OH-testosterone] | No Inhibition | Potent Inhibitor (Non-Selective) |  | Potent Inhibitor (Non-Selective) |  |  |  |
| C[C@]12CC[C@@H](O)C[C@@H]1CC[C@@H]1[C@@H]2[C@@H](O)C[C@]2(C)[C@@H](C(=O)CO)CC[C@@H]12 [3α,5α-reduced-corticosterone] | No Inhibition | Potent Inhibitor |  | Potent Inhibitor | three to five fold increase |  |  |
| C[C@]12CC[C@@H](O)C[C@@H]1CC[C@H]1[C@@H]3CC[C@H](C(=O)CO)[C@@]3(C)CC(=O)[C@@H]12 [3α,5α-tetrahydro-11-dehydro-corticosterone] | Potent Inhibitor | No Inhibition |  | Potent Inhibitor |  |  |  |
| CC(=O)[C@H]1CC[C@H]2[C@@H]3CC[C@@H]4C[C@H](O)CC[C@]4(C)[C@H]3CC[C@]12C [3α,5β progesterone, 3α,5β-tetrahydro-progesterone] |  | potent inhibitors |  |  |  | Neither of these compounds effected the backward reaction |  |
| C[C@]12CC[C@@H](O)C[C@H]1CC[C@@H]1[C@@H]2CC[C@]2(C)[C@@H](C(=O)CO)CC[C@@H]12 [3α,5β-deoxycorticosterone, 3α,5β-terahydro-deoxycorticosterone] |  | potent inhibitors |  |  |  | Neither of these compounds effected the backward reaction |  |
| C[C@]12CCC(=O)C[C@@H]1CC[C@@H]1[C@@H]2[C@@H](O)C[C@]2(C)[C@@H](C(=O)CO)CC[C@@H]12 [5α-dihydro-corticosterone] | No inhibition | Potent Inhibitor |  | Potent Inhibitor |  |  |  |
| C[C@]12CCC(=O)C=C1CC[C@@H]1[C@@H]2C(=O)C[C@]2(C)C(=O)CC[C@@H]12 [11-Keto-androstenedione] | Selective Inhibitor | No Inhibition |  | No Inhibition |  |  |  |
| C[C@]12CC(=O)[C@H]3[C@@H](CCC4=CC(=O)CC[C@@]43C)[C@@H]1CC[C@@H]2O [11-Keto-testosterone] | Selective Inhibitor | No Inhibition |  | No Inhibition |  |  |  |
| C[C@]12CC(=O)[C@H]3[C@@H](CCC4=CC(=O)CC[C@@]43C)[C@@H]1CC[C@@H]2C(=O)CO [11-dehydro-corticosterone] |  |  |  |  |  |  | amplified |
| CC(=O)[C@H]1CC[C@H]2[C@@H]3CCC4=CC(=O)CC[C@]4(C)[C@H]3[C@@H](O)C[C@]12C [11β-OH-progesterone] | No Inhibition | Potent Inhibitor (Non-Selective) |  |  |  |  |  |
| C[C@]12C[C@H](O)[C@H]3[C@@H](CCC4=CC(=O)CC[C@@]43C)[C@@H]1CC[C@@H]2O [11β-OH-testosterone] | No Inhibition | Inhibitor (Non-Selective) |  | Inhibitor (Non-Selective) |  |  |  |
| C[C@H](CCC(=O)O)[C@H]1CC[C@H]2[C@@H]3[C@H](O)C[C@@H]4C[C@H](O)CC[C@]4(C)[C@H]3CC[C@]12C [chenodeoxycholic acid] | No Inhibition | potent inhibitors; also recorded: Selective inhibitor |  | No Inhibition |  |  |  |
| C[C@]12C[C@H](O)[C@H]3[C@@H](CCC4=CC(=O)CC[C@@]43C)[C@@H]1CC[C@@H]2C(=O)CO [corticosterone] |  |  |  |  |  |  | amplified contractile responses |
